These results are taken from US12686668B2, “Leukotriene synthesis inhibitors” (Naegis Pharmaceuticals Inc., priority 2019, dated 2026).

The subject of assay [1] is LTB4 production in porcine or human whole blood. Nature of the assay: Whole blood HPLC assay, inhibition of LTB4 production. The following applies: 5 point curve, porcine or human whole blood (not specified). In kind it is cell-based. Summed up: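 Porcine or human whole blood was pre-incubated 30 min with compound, then stimulated 20 min at room temperature with 20 μM A23187 (porcine blood also received 20 μM arachidonic acid). Plasma LTB4 was extracted on C18 and quantified by HPLC against reference standards. IC50 from a 5-point curve, with inhibition relative to controls.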

In assay [2] the target is T1, recombinant human leukotriene A4 hydrolase enzyme (Homo sapiens, UniProt P09960).
T1 construct: purchased Cayman Chemical 10007817
T1 sequence (P09960 1-611): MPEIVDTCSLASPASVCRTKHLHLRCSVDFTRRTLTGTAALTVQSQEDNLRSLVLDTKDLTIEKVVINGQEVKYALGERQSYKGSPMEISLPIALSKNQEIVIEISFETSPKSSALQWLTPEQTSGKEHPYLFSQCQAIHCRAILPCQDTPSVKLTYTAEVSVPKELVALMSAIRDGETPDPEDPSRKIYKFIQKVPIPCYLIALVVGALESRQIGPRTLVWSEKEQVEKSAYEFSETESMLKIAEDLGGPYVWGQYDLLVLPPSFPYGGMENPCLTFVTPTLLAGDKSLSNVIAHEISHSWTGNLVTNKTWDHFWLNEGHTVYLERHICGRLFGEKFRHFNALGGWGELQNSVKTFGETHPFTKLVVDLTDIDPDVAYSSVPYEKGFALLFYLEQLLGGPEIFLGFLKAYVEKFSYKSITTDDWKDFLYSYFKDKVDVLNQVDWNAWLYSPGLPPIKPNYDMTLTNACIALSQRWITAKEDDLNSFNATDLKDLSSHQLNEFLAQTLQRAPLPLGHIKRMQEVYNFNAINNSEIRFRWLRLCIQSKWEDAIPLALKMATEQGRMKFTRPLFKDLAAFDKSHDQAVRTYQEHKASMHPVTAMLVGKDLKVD
The assay can be described thus: Amino-peptidase assay, alanine-4-nitroanalide. In kind it is biochemical. The following applies: negative values = augmented peptidase activity, read-out: % Inhibition aminopeptidase-Alanine-4-nitroanalide activity of LTA4H (3 μM). Summed up:
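Compounds pre-incubated in the dark with recombinant human LTA4H (0.5 μg) in 50 mM Tris-HCl, 100 mM KCl; reaction started with alanine-4-nitroanilide (6 mM solution). Aminopeptidase rate followed as A405 from 4-nitroaniline, referenced to a standard; inhibition calculated versus controls, with negative values indicating augmented activity.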

The subject of assay [3] is AA-induced ear edema. Nature of the assay: Arachidonic acid (AA) induced mouse ear edema model. In kind it is in vivo, CD-1 mice. The following applies: 4 hrs and 1 hr before AA 2 mg/ear, mice; for % Inhibition AA-Induced ear edema (0.3 mg/ear): topical 0.3 mg/ear; for % Inhibition AA-Induced ear edema (1 mg/ear): topical 1 mg/ear. The method, then:
One group serves as a control and receives 20 μL of vehicle applied to the pinna of each ear (10 μL to the inside and 10 μL to the outside of the pinna). One or more additional groups serve as test groups. The test compound was applied to the pinna of one ear of the mouse in a 20 μL volume (10 μL to the inside and 10 μL to the outside of the pinna). Test compound or control vehicle (acetone/1% DMSO) was applied topically to the right ear 4 and 1 hour before the application of 2 mg/ear AA as a stimulus to both the inner and outer surfaces of CD-1 mice. The left ears received vehicle (acetone/1% DMSO) alone. The animal was lightly anesthetized again using isofluorane to enable application of the stimulus. For the control group, arachidonic acid (2 mg/ear) was applied as the stimulus to the pinna of one ear only, in a total volume of 20 μL of acetone (10 μL applied to the inside and 10 μL to the outside of the pinna). The other ear received 20 μL of acetone. This served to determine the increase in ear weight due to arachidonic acid in the absence of test compounds. For the test groups, arachidonic acid (2 mg/ear) was applied as the stimulus to the pinna of each ear, in a total volume of 20 μL of acetone (10 μL applied to the inside and 10 μL to the outside of the pinna). The animal was allowed to recover after application of the stimulus in each case. After 60 minutes the animal was euthanized and a standard biopsy sample was taken from each ear using a 6 mm skin biopsy punch (Acuderm). Ear edema was determined by the increase in weight of the tissue due to accumulation of fluid as a result of plasma extravasation. The ears were weighed separately using a balance suitable to record 0.1 mg. For the control group, the difference in ear weights was determined by subtracting the weight of the unstimulated ear from the stimulated ear, and this was a measure of the increase in ear weight due to edema. The percentage increase in ear weight was determined by dividing the increase in stimulated ear weight by the unstimulated ear weight and multiplying by 100. For the test groups, the difference in ear weights was determined by subtracting the weight of the untreated ear from the weight of the ear treated with test compound. The percent inhibition of the increase in ear weight for ears treated with the test compound was estimated by first subtracting the mean ear weight of the untreated controls from each tissue to determine the increase in tissue weight due to application of the arachidonic acid. The percent inhibition=1−(test drug stimulated ear (mg)/control stimulated ear (mg))×100. In Table 5, the data from inhibition of AA-induced ear edema in mice by topical application of compounds is provided. Compounds (0.3 or 1 mg/ear) were applied topically to the ear 4 hrs and 1 hr prior to application of arachidonic acid (AA; 2 mg/ear).

pIC50: −log10 of the molar value.

As for `CCC(O)(CCc1ccc(Oc2nc3c(SC)cccc3s2)c(OC)c1)C(F)(F)F` (centres unmarked) [Compound 104, 1-{3-methoxy-4-[(4-methylsulfanyl-1,3-benzothiazol-2-yl)oxy]phenyl}-3-(trifluoromethyl)pentan-3-ol], the negative-log IC50 (pIC50) (as a rule, −log10 of the IC50, conventionally taken in molar units) in assay [1] is 6.00 to 7.00. Further, the inhibition (as a rule, the drop in the measured response relative to a control, in per cent) at 3 µM in assay [2] was -50 to 100%. Also, in assay [3], the “% Inhibition AA-Induced ear edema (0.3 mg/ear)” value is 30-50% and the “% Inhibition AA-Induced ear edema (1 mg/ear)” value is 50-70%.

Turning to `CC(O)(CCc1ccc(OCc2ccc3ccccc3n2)cc1)C(F)(F)F` (centres unmarked) [Compound 183, 1,1,1-trifluoro-2-methyl-4-[4-(quinolin-2-ylmethoxy)phenyl]butan-2-ol], the pIC50 in assay [1] was 6.00 to 7.00. In addition, the inhibition at 3 µM in assay [2] was more than 75%. Also, in assay [3], the “% Inhibition AA-Induced ear edema (0.3 mg/ear)” value is given as 30-50% and the “% Inhibition AA-Induced ear edema (1 mg/ear)” value is on record as more than 90%.
